Laboratory results as given in ChEMBL document CHEMBL1201862, “PubChem BioAssay data set” (2004).
The source made the active and inactive calls.

Key:
Large T antigen = Large T antigen (Simian virus 40, UniProt P03070); assay type: functional, Betapolyomavirus macacae;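 note: Confirmatory-stage PubChem screen for compounds that inhibit SV40 T antigen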
NS3 = NS3 (Hepatitis C virus, UniProt A3EZJ3); test: PubChem AID 2173; set-up: species or system Hepacivirus hominis
[1] = molecular target: T1, Long-chain-fatty-acid--AMP ligase FadD28 (Mycobacterium tuberculosis, UniProt P9WQ59); test: Fluorescence polarization aasay to screen for inhibitors that compete for the binding of FadD28 to a bisubstrate Measured in Biochemical System Using Plate Reader - 2147-01_Inhibitor_Dose_CherryPick_Activity.; assay type: functional, Mycobacterium tuberculosis H37Rv
T1 sequence (P9WQ59 whole entry): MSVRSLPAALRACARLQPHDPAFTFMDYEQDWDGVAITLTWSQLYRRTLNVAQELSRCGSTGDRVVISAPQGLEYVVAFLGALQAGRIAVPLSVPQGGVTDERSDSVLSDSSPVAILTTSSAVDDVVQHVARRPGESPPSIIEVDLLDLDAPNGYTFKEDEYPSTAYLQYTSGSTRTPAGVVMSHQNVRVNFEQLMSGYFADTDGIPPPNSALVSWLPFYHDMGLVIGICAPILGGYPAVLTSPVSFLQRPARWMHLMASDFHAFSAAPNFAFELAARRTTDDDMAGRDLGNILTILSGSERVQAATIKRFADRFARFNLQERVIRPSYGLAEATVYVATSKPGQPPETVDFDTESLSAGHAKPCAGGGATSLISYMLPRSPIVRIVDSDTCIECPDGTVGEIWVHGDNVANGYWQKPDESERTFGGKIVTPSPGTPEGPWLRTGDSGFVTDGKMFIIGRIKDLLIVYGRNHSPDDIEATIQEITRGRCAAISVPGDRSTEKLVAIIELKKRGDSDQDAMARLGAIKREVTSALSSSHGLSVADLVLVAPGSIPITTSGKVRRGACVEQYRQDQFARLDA

[2] = molecular target: T2, Short transient receptor potential channel 4 (Mus musculus, UniProt Q9QUQ5); test: block of DAMGO-driven TRPC4 calcium entry – cell-based, HEK293 TRPC4/mu-opioid, Fluo-4 calcium, dose response (AID 434942); assay type: functional;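 note: potency of inhibitors blocking the TRPC4 calcium response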
T2 sequence (Q9QUQ5 whole entry): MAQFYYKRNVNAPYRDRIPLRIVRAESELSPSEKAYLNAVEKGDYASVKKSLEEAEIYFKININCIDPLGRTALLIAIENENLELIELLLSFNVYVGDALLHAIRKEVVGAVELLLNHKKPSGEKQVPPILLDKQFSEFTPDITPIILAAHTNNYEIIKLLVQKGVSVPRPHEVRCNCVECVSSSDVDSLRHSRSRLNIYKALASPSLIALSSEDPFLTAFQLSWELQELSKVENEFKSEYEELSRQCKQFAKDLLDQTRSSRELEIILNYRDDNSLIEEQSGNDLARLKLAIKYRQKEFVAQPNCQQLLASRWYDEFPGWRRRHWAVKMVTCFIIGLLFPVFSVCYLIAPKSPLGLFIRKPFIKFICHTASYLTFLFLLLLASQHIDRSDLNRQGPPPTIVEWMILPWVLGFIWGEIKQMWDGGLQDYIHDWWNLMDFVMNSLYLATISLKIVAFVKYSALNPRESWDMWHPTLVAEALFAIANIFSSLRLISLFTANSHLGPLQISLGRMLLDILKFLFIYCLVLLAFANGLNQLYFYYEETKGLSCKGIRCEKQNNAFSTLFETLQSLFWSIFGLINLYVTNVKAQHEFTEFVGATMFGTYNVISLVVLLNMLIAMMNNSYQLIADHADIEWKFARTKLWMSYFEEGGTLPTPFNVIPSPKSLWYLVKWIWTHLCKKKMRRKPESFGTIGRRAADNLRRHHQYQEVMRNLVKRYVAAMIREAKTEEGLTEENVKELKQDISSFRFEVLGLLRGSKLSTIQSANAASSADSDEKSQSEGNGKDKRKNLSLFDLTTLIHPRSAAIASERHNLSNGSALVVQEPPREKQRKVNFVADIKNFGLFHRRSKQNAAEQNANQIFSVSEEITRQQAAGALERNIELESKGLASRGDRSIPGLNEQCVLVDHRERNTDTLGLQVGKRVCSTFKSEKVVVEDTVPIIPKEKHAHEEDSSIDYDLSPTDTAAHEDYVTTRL

[3] = molecular target: Luciferin 4-monooxygenase (Photinus pyralis, UniProt P08659); test: Counter Screen for Luciferase-based Assay Positives. [Related pubchem assays: 620, 618, 411 ]
HT-1080 = test: HT1080 cell viability loss – fluorescence readout (AID 620); assay type: functional, cell-based; settings: Homo sapiens
[4] = HEK-293T cell viability reduction – luminescence, B-cell screen hits, cytotoxicity control for BCR NF-kB inhibitor project, dose response (AID 489021); assay type: functional, cell-based;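 note: HEK-293T cells carrying an NF-kB luciferase reporter; cells exposed to compound for about 14 hours before viability readout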
[5] = blockers of HIV-1 envelope-mediated cell-cell fusion – cherry-pick, dose response (AID 652057); assay type: functional, cell-based
[6] = blockers of HIV-1 ZM109 envelope-driven cell-cell fusion – HeLa effector, CEM target cells, luciferase, cherry-pick, dose response (AID 652058); assay type: functional, cell-based;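 note: luciferase signal from HIV-1 Env mediated cell-cell fusion of effector and target cells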
[7] = off-target signal loss in HeLa-CEM21 co-culture – HeLa F-luc CTL cells, cherry-picked, counter-screen for HIV-1 Env fusion inhibitor project, dose response (AID 652040); assay type: functional, cell-based;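 note: potency for signal decrease marking cytotoxic or nonspecific inhibition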
[8] = HIV-1 AD8 envelope cell-cell fusion blockers – cherry-pick, dose response (AID 652062); assay type: functional, cell-based;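 note: luciferase signal from cell-cell fusion driven by HIV-1 clade B AD8 Env; potency is for inhibitors of fusion seen as a drop in luminescence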
Leucine aminopeptidase = molecular target: T3, Leucine aminopeptidase (Plasmodium falciparum 3D7, UniProt Q8IL11); test: P. falciparum M17LAP inhibitors, primary screen, biochemical, fluorogenic H-Leu-NHMec substrate, 1536-well (AID 1619); assay type: functional
T3 sequence (Q8IL11 whole entry): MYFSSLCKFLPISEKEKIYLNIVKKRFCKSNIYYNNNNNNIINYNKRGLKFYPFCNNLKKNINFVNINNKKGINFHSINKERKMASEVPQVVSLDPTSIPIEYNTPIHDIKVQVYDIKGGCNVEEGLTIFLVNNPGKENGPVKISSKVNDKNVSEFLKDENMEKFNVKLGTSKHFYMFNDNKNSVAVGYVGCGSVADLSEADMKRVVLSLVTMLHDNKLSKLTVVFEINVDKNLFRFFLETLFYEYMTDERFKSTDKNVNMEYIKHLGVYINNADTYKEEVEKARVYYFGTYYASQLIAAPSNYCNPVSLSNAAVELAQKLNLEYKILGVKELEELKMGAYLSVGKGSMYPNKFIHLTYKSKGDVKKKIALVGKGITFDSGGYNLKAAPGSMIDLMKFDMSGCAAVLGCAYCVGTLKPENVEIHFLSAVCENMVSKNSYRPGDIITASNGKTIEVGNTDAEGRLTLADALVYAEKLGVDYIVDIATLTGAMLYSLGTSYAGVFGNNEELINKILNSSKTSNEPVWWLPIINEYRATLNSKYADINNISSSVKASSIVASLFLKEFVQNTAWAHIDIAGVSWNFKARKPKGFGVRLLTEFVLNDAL

[9] = luciferase reporter signal suppression in cells – H4 neuroglioma cells, luminescence, dose response (AID 1990); assay type: functional, cell-based
[10] = luciferase reporter signal reduction – luminescence, H4-C neuroglioblastoma cells, dose response (AID 2458); assay type: functional, cell-based;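 note: H4 neuroglioblastoma cells stably carrying a luciferase reporter gene fusion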
cells [11] = assay type: functional, cell-based
[12] = Luminescence Cell-Based Dose Response HTS to Identify Inhibitors of 5'UTR Stem-Loop Driven Prion Protein mRNA Translation in H4 Neuroglioblastoma Cells. [Related pubchem assays: 1827 (Project Summary), 1813 (Primary HTS)]; assay type: functional
[13] = alpha-synuclein stem-loop luciferase translation blockers – H4 neuroglioma cells, luminescence, confirmation (AID 1988); assay type: functional, cell-based
[14] = alpha-synuclein stem-loop translation blockers – luminescence, H4 neuroglioblastoma cells, dose confirmation, confirmation (AID 2454); assay type: functional, cell-based;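 note: H4 neuroglioblastoma cells carrying an alpha-synuclein 5'UTR luciferase reporter; potency for inhibition of the luciferase signal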
[15] = molecular target: T4, Microphthalmia-associated transcription factor (Homo sapiens, UniProt O75030); test: reducers of TRPM1 reporter luminescence, concentration series – cell-based, SK-MEL-5, cherry-picked, set 3, MITF inhibitor project, dose response (AID 493073); assay type: functional;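 note: SK-MEL-5 melanoma cells with luciferase driven by the MITF target TRPM1 promoter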
T4 sequence (O75030 whole entry): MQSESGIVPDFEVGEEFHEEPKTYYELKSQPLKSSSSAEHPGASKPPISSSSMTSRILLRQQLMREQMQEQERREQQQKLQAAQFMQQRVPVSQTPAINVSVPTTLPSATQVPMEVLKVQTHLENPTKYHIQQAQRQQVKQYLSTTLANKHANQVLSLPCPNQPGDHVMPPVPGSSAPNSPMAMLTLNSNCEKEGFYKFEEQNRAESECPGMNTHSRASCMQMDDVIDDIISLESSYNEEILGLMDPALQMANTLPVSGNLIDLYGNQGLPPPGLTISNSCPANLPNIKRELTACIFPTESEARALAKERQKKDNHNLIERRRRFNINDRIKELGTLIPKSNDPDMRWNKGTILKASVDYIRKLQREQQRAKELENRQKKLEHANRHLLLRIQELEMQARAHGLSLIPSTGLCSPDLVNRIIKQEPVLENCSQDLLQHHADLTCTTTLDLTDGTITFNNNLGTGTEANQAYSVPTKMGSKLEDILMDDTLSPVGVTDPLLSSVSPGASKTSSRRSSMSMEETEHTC

[16] = viability of uninfected HEp-2 cells – cell-based, HTS, cytotoxicity control for RSV inhibitor project, dose response (AID 2410); assay type: functional; settings: human respiratory syncytial virus
cells [17] = test: cells
Bcl-2-like protein 10 = Bcl-2-like protein 10 (Homo sapiens, UniProt Q9HD36); test: Bcl-B/TR3 peptide binding disruption – biochemical, fluorescence polarization, FITC-TR3 peptide, selectivity assay for Bfl-1 inhibitor project, primary screen (AID 748);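 note: fluorescence polarization from a fluorescein-labelled TR3 peptide binding purified Bcl-B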
BJ [18] = test: BJ-TERT fibroblast viability loss – cell-based, RAS-independent, luminescence, dose response (AID 1933); assay type: functional; settings: Homo sapiens
BJ [19] = test: cells; assay type: functional, cell-based; settings: Homo sapiens
BJ [20] = test: BJ-TERT-LT-ST fibroblast viability loss – cell-based, RAS-independent, luminescence, dose response (AID 1935); assay type: functional; settings: Homo sapiens;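 note: BJ fibroblasts immortalized with TERT plus LT and ST oncogenes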
[21] = DRD fibroblast viability loss – cell-based, non-viral oncogenic, luminescence, dose response (AID 1934); assay type: functional; settings: Homo sapiens
[22] = HEK-293T viability loss after treatment – luminescence, T-cell screen hits, cytotoxicity control for TCR NF-kB inhibitor project, dose response (AID 489026); assay type: functional, cell-based;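 note: cells exposed to compound about 14 hours before the viability readout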
cells [23] = assay type: functional, cell-based; remark: listed apart in the source
[24] = molecular target: T5, Nuclear receptor subfamily 0 group B member 1 (Homo sapiens, UniProt P51843); assay type: functional, cell-based;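 note: HEK293T cells transfected with SF-1 and DAX-1 plus StAR promoter luciferase reporter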
T5 sequence (P51843 whole entry): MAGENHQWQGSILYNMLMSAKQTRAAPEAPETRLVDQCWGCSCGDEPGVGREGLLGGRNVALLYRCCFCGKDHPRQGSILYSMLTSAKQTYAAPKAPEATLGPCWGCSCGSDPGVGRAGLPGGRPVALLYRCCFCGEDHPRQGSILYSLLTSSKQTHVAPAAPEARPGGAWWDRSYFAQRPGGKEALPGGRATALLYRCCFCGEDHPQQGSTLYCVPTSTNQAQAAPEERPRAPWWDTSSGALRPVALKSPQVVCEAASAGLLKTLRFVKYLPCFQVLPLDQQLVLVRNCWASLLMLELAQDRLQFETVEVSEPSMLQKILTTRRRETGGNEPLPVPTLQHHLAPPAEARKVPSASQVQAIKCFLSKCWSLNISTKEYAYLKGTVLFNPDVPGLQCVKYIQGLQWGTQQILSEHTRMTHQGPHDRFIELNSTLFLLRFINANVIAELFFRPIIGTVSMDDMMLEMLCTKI

Paired box protein Pax-8 = Paired box protein Pax-8 (Homo sapiens, UniProt Q06710); test: PAX8 transcriptional activity inhibition in RMG-I – RMG-I cells, luciferase, cherry-pick, dose response (AID 687027); assay type: functional, cell-based;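 note: luciferase reporter driven by Pax8 target thyroperoxidase promoter measured by SteadyGlo luminescence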
Sequence of Paired box protein Pax-8 (Q06710 whole entry): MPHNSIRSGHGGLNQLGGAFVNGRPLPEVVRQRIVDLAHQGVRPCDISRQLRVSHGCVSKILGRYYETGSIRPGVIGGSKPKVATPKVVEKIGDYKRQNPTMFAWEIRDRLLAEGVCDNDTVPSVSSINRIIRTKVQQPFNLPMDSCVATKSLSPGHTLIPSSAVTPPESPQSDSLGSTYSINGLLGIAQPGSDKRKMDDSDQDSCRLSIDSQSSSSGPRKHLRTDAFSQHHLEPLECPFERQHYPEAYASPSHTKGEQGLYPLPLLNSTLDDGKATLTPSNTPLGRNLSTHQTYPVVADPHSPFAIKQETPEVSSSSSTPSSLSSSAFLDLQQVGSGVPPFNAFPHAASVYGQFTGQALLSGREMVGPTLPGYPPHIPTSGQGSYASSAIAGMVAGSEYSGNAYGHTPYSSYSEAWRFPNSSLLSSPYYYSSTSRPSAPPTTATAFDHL

Sequence of Luciferin 4-monooxygenase (P08659 whole entry): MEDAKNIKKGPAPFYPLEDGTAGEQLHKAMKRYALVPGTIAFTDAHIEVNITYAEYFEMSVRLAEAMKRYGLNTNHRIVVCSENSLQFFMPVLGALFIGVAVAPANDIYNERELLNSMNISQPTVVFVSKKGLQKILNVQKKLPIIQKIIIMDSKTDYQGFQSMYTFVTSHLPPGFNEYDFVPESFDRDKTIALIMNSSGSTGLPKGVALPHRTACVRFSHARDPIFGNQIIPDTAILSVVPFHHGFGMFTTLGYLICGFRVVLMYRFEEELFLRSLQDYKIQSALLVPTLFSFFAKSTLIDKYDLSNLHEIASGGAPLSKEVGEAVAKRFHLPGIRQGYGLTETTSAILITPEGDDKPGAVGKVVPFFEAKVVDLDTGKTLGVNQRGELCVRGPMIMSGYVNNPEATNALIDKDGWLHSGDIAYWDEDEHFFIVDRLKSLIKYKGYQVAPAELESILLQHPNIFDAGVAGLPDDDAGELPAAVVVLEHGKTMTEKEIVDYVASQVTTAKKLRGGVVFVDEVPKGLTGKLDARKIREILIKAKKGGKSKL
Sequence of NS3 (A3EZJ3 whole entry): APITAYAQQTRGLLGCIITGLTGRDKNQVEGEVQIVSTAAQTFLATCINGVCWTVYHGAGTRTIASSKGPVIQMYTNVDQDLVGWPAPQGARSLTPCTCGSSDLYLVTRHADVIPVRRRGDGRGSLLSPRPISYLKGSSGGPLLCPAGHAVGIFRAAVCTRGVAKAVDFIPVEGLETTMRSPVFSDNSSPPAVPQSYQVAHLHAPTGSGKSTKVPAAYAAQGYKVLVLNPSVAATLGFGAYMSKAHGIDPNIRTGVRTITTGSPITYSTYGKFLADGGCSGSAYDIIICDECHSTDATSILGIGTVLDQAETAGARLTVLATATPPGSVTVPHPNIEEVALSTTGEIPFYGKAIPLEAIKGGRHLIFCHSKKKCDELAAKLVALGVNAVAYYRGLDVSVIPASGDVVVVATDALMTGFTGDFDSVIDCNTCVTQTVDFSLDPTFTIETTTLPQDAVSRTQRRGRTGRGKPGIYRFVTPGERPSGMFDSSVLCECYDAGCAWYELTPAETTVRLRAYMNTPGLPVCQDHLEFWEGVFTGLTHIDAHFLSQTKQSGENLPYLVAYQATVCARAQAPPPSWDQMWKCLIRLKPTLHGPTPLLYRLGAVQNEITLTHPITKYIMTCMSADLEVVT
Sequence of Large T antigen (P03070 whole entry): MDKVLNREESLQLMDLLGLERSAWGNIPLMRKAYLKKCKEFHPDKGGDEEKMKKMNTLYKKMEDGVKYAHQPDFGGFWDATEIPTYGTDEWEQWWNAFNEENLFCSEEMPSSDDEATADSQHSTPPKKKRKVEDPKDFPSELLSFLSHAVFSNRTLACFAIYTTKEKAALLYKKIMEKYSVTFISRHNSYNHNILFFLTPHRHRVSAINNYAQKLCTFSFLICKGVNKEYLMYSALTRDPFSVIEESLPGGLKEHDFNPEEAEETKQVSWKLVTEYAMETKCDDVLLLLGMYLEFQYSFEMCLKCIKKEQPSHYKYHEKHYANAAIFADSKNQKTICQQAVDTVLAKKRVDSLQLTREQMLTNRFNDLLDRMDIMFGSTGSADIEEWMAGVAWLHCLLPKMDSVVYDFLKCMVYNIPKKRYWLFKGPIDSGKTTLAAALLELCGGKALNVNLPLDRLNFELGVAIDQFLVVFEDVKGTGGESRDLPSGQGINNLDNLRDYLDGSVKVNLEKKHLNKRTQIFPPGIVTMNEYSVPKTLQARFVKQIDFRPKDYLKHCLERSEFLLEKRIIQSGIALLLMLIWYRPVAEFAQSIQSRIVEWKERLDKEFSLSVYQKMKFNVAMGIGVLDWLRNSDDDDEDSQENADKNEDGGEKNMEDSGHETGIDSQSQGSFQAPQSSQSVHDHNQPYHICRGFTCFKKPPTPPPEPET
Sequence of Bcl-2-like protein 10 (Q9HD36 whole entry): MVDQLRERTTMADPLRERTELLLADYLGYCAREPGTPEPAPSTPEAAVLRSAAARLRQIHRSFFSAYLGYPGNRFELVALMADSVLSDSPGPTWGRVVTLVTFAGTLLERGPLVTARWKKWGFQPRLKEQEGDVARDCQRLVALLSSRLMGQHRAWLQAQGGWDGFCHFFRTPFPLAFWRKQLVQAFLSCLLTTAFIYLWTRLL

O=c1c2c(O)cc(CSc3ccc(Cl)cc3)nc2[nH]n1-c1ccccc1
IC50 (Large T antigen): > 100 µM (active) | IC50 (NS3): 5.22 µM (active) | AC50 [1]: 23.4 µM (active)

CCc1cccc(OCC(=O)Nc2ccc(C(=O)O)cc2NC(=O)COc2cccc(CC)c2)c1
EC50 [2]: 11.9 µM (active)

COc1ccc(-c2noc(CCCC(=O)O)n2)cc1
EC50 [3]: 3.3 µM (active) | EC50 (HT-1080): > 50 µM (not active) | IC50 [4]: > 80 µM (inactive) | AC50 [5]: 2.26 µM (active) | AC50 [6]: 1.08 µM (active) | AC50 [7]: 1.59 µM (active) | AC50 [8]: 1.1 µM (active)

N#C/C(=C\c1ccc(O)c(O)c1)S(=O)(=O)c1ccccc1
IC50 (Leucine aminopeptidase): 7.23 µM (active) | IC50 (NS3): 4.39 µM (active)

O=C(CSc1nnc(-c2ccc(Br)cc2)o1)Nc1cccc(C(=O)O)c1
EC50 [9]: 3.04 µM (active) | EC50 [10]: 0.31 µM (active) | EC50 (cells [11]): 0.934 µM (active) | EC50 [12]: < 0.1 µM (active) | EC50 [13]: < 0.1 µM (active) | EC50 [14]: 0.409 µM (active)

N#Cc1c(NC(=O)CSc2nnc[nH]2)sc2c1CCCC2
IC50 (Leucine aminopeptidase): 4.79 µM (active) | EC50 [3]: 27.8 µM (active) | AC50 [15]: 0.599 µM (active)

COc1ccc(C(c2c(NC(=O)c3ccco3)sc(C)c2C)N2CCOCC2)cc1OC (stereo unspecified)
CC50 [16]: 46.5 µM (active) | IC50 (cells [17]): 4.07 µM (active)

Cc1c[nH]c2cccc(OCC(O)CNC(C)(C)C)c12 (stereo unspecified)
IC50 (Bcl-2-like protein 10): > 100 µM (inactive)

COc1ccc(NC(=O)C(=O)NCC2CCCN2S(=O)(=O)c2ccc(C)cc2)cc1 (stereo unspecified)
EC50 [9]: < 0.1 µM (active) | EC50 [10]: 0.051 µM (active) | EC50 (BJ [18]): 0.625 µM (active) | EC50 (cells [11]): 0.06 µM (active) | EC50 [13]: < 0.1 µM (active) | EC50 (BJ [19]): 11.7 µM (inconclusive) | EC50 (BJ [20]): 0.611 µM (active) | EC50 [21]: 0.484 µM (active) | EC50 [14]: 0.047 µM (active) | IC50 [22]: > 80 µM (inactive) | IC50 (cells [23]): > 67.5 µM (inactive) | IC50 [24]: > 67.5 µM (inactive) | AC50 (Paired box protein Pax-8): 0.709 µM (active)

Cc1cc(O)nc(N/N=C/c2c(C)nn(-c3ccccc3Cl)c2Cl)n1
CC50 [16]: 21.2 µM (active) | IC50 (cells [17]): 41.5 µM (active)

CCCN1C2=NCCN2c2cc(C)c(C)cc21
EC50 [2]: 5.96 µM (active)
